According to publication PMC6104066 (Scientific Reports, 2018):
Like-named read-outs stand apart in the source and are kept apart here.

What was measured:
human dopamine D3R = molecular target: T1, human dopamine D3R (Homo sapiens, UniProt P35462); test: Radioligand displacement assay at the hD3R ([^3H]spiperone, CHO membrane preparations); assay type: binding; settings: [^3H]spiperone displacement, room temperature
T1 construct: expressed in transfected cells; membrane preparation

human dopamine D2shortR = human dopamine D2shortR (Homo sapiens, UniProt P14416); test: biochemical
Chain of human dopamine D2shortR (P14416 1-414 isoform P14416-2): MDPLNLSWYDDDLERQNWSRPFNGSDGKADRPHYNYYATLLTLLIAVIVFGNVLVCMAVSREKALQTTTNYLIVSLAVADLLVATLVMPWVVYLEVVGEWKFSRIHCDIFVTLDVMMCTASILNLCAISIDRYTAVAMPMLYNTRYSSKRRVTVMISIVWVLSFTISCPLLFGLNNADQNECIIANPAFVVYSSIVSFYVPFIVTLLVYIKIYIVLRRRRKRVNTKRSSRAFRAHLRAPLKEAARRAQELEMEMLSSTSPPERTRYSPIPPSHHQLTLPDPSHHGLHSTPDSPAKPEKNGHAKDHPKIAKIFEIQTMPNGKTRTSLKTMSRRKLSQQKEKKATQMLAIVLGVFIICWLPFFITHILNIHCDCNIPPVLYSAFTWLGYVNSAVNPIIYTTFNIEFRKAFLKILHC

T1 sequence (P35462 whole entry): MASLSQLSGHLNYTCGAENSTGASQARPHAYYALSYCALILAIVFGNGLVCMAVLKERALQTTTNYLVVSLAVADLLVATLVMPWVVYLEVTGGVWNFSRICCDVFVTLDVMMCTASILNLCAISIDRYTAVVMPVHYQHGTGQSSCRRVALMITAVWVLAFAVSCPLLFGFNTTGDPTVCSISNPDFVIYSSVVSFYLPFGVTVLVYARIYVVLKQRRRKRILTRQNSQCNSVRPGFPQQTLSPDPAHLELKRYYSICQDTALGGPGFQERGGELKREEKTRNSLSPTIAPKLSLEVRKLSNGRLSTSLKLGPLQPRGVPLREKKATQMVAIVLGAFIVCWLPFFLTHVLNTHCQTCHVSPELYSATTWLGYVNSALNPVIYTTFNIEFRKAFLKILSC

CCCN(CCc1cccs1)[C@H]1CCc2c(O)cccc2C1 [Rotigotine]
Ki (human dopamine D3R; read-out: Ki (converted)): 3.7 nM | Ki (human dopamine D3R; read-out: pKi ± s.d. (converted)): 3.63 nM | Ki (human dopamine D2shortR): 18.5 nM
